From patent US10273222B2 (CELGENE QUANTICEL RESEARCH, INC., priority 2013, dated 2019)

What was measured:
Assay type in all cases: biochemical
Jarid1A = Jarid1A (Homo sapiens (Human), UniProt P29375); assay: Jarid1A in vitro enzyme inhibition assay (TR-FRET)
Text: The enzymatic assay of Jarid1A activity is based upon Time Resolved-Fluorescence Resonance Energy Transfer (TR-FRET) detection.

Jarid1B = Jarid1B (Homo sapiens (Human), UniProt Q9UGL1); assay: Jarid1B in vitro enzyme inhibition assay (TR-FRET)
Protocol: This assay determines the ability of a test compound to inhibit Jarid1A, Jarid1B, JMJD2C, and JMJD2A demethylase activity.
The ability of test compounds to inhibit the activity of Jarid1B was determined in 384-well plate format under the following reaction conditions: 0.8 nM Jarid1B, 300 nM H3K4me3-biotin labeled peptide (Anaspec cat #64357), 2 μM alpha-ketoglutaric acid in assay buffer of 50 mM HEPES, pH7.3, 0.005% Brij35, 0.5 mM TCEP, 0.2 mg/ml BSA, 50 μM sodium L-ascorbate, and 2 μM ammonium iron(II) sulfate. Reaction product was determined quantitatively by TR-FRET after the addition of detection reagent Phycolink Streptavidin-allophycocyanin (Prozyme) and Europium-anti-mono- or di-methylated histone H3 lysine 4 (H3K4me1-2) antibody (PerkinElmer) in the presence of 5 mM EDTA in LANCE detection buffer (PerkinElmer) at a final concentration of 25 nM and 1 nM, respectively.
The assay reaction was initiated by the following: 2 μl of the mixture of 900 nM H3K4me3-biotin labeled peptide and 6 μM alpha-ketoglutaric acid with 2 μl of 11-point serial diluted inhibitor in 3% DMSO was added to each well of the plate, followed by the addition of 2 μl of 2.4 nM Jarid1B to initiate the reaction. The reaction mixture was incubated at room temperature for 30 minutes, and terminated by the addition of 6 μl of 5 mM EDTA in LANCE detection buffer containing 50 nM Phycolink Streptavidin-allophycocyanin and 2 nM Europium-anti-H3K4me1-2 antibody. Plates were read by EnVisionMultilabel Reader in TR-FRET mode (excitation at 320 nm, emission at 615 nm and 665 nm) after 1 hour incubation at room temperature. A ratio was calculated (665/615) for each well and fitted to determine inhibition constant (IC50).

JMJD2C = JMJD2C (Homo sapiens (Human), UniProt Q9H3R0); assay: JMJD2C in vitro enzyme inhibition assay (TR-FRET)
Protocol: This assay determines the ability of a test compound to inhibit Jarid1A, Jarid1B, JMJD2C, and JMJD2A demethylase activity. […] Baculovirus expressed JMJD2C (GenBank Accession #BC143571, AA 2-372) was purchased from BPS Bioscience (Cat#50105).
The ability of test compounds to inhibit the activity of JMJD2C was determined in 384-well plate format under the following reaction conditions: 0.3 nM JMJD2C, 300 nM H3K9me3-biotin labeled peptide (Anaspec cat #64360), 2 μM alpha-ketoglutaric acid in assay buffer of 50 mM HEPES, pH7.3, 0.005% Brij35, 0.5 mM TCEP, 0.2 mg/ml BSA, 50 μM sodium L-ascorbate, and 2 μM ammonium iron(II) sulfate. Reaction product was determined quantitatively by TR-FRET after the addition of detection reagent Phycolink Streptavidin-allophycocyanin (Prozyme) and Europium-anti-di-methylated histone H3 lysine 9 (H3K9me2) antibody (PerkinElmer) in the presence of 5 mM EDTA in LANCE detection buffer (PerkinElmer) at a final concentration of 50 nM and 1 nM, respectively.
The assay reaction was initiated by the following: 2 μl of the mixture of 900 nM H3K9me3-biotin labeled peptide and 6 μM alpha-ketoglutaric acid with 2 μl of 11-point serial diluted inhibitor in 3% DMSO were added to each well of the plate, followed by the addition of 2 μl of 0.9 nM JMJD2C to initiate the reaction. The reaction mixture was incubated at room temperature for 30 minutes, and terminated by the addition of 6 μl of 5 mM EDTA in LANCE detection buffer containing 100 nM Phycolink Streptavidin-allophycocyanin and 2 nM Europium-anti-H3K9me2 antibody. Plates were read by EnVisionMultilabel Reader in TR-FRET mode (excitation at 320 nm, emission at 615 nm and 665 nm) after 1 hour incubation at room temperature. A ratio was calculated (665/615) for each well and fitted to determine inhibition constant (IC50).

FBXL10 = FBXL10 (Homo sapiens (Human), UniProt Q8NHM5); assay: FBXL10 in vitro enzyme inhibition assay (AlphaScreen)
Protocol: Reaction product was determined quantitatively by AlphaScreen detection after the addition of detection reagents anti-H3K36me1 antibody, AlphaScreen® Streptavidin-coated Donor beads, and AlphaScreen® Protein A Acceptor beads in 50 mM HEPES, pH7.3, 10 mM NaCl, 0.005% Brij35, 5 mM EDTA, 2 mg/ml BSA to final 10 μg/ml beads.
Plates were incubated at room temperature for 40 minutes, followed by addition of 3 μl of 50 μg/ml AlphaScreen® Streptavidin-coated Donor beads and AlphaScreen® Protein A Acceptor beads in 50 mM HEPES, pH7.3, 10 mM NaCl, 0.005% Brij35, 5 mM EDTA, 2 mg/ml BSA. Plates were read by EnVisionMultilabel Reader in AlphaScreen mode after a minimum of 2 hour or up to overnight incubation at room temperature. The AlphaScreen signal for each well was used to determine inhibition constant (IC50).

Sequence of Jarid1B (Q9UGL1 2-751): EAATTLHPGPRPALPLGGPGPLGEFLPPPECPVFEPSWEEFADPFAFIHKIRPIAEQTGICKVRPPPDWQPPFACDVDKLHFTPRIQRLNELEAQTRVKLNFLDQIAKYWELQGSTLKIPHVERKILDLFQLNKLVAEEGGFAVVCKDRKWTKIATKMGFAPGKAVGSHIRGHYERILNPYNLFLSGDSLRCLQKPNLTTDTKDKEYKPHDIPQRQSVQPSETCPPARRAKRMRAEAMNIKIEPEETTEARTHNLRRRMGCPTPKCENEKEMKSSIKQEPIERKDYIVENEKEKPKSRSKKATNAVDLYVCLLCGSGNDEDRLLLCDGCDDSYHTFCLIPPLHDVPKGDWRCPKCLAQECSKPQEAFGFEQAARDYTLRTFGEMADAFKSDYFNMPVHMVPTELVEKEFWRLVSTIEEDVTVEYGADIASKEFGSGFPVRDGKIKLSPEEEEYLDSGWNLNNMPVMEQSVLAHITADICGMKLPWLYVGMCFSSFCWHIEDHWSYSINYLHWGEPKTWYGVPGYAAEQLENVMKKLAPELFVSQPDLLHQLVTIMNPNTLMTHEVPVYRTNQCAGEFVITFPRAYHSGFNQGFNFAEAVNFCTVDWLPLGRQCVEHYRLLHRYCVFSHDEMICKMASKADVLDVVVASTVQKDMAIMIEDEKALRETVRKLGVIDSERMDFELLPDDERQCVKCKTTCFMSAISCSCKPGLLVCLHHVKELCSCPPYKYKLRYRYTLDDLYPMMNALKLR
Sequence of JMJD2C (Q9H3R0 2-372): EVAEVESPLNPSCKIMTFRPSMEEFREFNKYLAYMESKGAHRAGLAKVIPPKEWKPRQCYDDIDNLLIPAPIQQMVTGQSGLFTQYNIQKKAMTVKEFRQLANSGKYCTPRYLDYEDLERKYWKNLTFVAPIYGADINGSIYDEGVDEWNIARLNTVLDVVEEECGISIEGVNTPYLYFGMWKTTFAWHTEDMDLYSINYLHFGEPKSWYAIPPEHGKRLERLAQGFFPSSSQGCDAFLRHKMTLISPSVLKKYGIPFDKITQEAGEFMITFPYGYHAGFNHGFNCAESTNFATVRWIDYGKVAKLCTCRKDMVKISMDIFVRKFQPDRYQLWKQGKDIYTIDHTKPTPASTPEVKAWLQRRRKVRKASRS
Sequence of Jarid1A (P29375 1-1090): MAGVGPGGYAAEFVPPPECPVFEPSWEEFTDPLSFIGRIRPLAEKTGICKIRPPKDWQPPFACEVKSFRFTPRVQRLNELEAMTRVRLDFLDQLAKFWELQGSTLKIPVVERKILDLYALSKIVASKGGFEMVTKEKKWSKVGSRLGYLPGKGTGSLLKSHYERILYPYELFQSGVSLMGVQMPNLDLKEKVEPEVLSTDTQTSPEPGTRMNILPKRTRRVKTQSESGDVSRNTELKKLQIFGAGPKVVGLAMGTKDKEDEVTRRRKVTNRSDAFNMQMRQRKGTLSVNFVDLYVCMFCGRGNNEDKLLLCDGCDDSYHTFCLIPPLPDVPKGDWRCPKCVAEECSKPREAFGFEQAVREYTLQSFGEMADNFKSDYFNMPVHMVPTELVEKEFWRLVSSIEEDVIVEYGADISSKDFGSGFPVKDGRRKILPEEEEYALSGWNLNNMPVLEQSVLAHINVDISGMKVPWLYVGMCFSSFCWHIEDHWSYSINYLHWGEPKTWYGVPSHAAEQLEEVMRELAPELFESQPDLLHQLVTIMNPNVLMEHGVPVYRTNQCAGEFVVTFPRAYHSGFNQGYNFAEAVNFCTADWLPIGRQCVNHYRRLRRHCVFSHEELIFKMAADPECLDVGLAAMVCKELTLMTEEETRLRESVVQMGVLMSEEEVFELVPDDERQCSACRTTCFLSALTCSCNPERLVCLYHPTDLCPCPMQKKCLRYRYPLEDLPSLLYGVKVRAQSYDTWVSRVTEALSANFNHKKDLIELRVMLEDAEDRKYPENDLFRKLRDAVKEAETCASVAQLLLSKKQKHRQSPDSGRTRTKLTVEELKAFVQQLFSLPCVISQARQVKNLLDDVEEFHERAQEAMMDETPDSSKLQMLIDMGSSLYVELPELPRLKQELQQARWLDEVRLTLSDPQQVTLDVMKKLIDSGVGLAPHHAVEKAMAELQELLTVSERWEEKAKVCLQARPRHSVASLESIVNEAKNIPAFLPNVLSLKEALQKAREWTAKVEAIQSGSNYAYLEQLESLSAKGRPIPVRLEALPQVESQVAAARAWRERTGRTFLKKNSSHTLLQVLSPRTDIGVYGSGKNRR
Sequence of FBXL10 (Q8NHM5 1-650): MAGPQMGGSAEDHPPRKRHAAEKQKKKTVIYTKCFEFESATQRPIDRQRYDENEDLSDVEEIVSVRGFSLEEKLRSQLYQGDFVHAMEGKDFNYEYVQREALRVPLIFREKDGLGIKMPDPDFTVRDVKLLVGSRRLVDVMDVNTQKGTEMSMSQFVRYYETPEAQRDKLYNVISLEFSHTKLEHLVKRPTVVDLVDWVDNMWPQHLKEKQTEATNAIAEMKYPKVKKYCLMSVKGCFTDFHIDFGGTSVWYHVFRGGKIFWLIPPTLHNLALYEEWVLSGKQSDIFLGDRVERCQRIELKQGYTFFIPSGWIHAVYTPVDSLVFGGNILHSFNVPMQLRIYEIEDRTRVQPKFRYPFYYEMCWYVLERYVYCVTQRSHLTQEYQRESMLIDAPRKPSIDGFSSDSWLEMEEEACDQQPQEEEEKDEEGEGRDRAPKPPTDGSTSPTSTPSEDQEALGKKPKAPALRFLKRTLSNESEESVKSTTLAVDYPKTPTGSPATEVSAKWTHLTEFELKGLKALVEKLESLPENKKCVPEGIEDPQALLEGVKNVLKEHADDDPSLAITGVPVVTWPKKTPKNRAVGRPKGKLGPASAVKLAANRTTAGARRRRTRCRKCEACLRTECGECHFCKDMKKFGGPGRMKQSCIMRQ

| SMILES | IC50 (Jarid1A) | IC50 (Jarid1B) | IC50 (JMJD2C) | IC50 (FBXL10) |
| --- | --- | --- | --- | --- |
| CCOc1cc(Cl)ccc1-c1c(-c2cc(C(=O)O)ccn2)ncn1C [Example 32, 2-[5-(4-chloro-2-ethoxyphenyl)-1-methyl-1H-imidazol-4-yl]pyridine-4-carboxylic acid] | ≤ 100 nM | ≤ 100 nM | 1000 to 10000 nM | 100 to 1000 nM |
| Cn1cnc(-c2cc(C(=O)O)ccn2)c1-c1ccc(Cl)cc1Cl [Example 33, 2-[5-(2,4-dichlorophenyl)-1-methyl-1H-imidazol-4-yl]pyridine-4-carboxylic acid] | ≤ 100 nM | ≤ 100 nM | 100 to 1000 nM | ≤ 100 nM |
| COCCCn1cnc(-c2cc(C(=O)O)ccn2)c1-c1ccc(Cl)c(F)c1 [Example 36, 2-[5-(4-chloro-3-fluorophenyl)-1-(3-methoxypropyl)-1H-imidazol-4-yl]pyridine-4-carboxylic acid] | ≤ 100 nM | ≤ 100 nM | 1000 to 10000 nM | ≤ 100 nM |
| COCCn1cnc(-c2cc(C(=O)O)ccn2)c1-c1ccc(Cl)c(F)c1 [Example 37, 2-[5-(4-chloro-3-fluorophenyl)-1-(2-methoxyethyl)-1H-imidazol-4-yl]pyridine-4-carboxylic acid] | ≤ 100 nM | ≤ 100 nM | 1000 to 10000 nM | ≤ 100 nM |
| CN(C)CCn1cnc(-c2cc(C(=O)O)ccn2)c1-c1ccc(Cl)c(F)c1 [Example 39, 2-{5-(4-chloro-3-fluorophenyl)-1-[2-(dimethylamino)ethyl]-1H-imidazol-4-yl}pyridine-4-carboxylic acid] | ≤ 100 nM | ≤ 100 nM | ≤ 100 nM | ≤ 100 nM |
| O=C(O)c1ccnc(-c2cn(CCn3cccn3)cn2)c1 [Example 46, 2-{1-[2-(1H-pyrazol-1-yl)ethyl]-1H-imidazol-4-yl}pyridine-4-carboxylic acid] | 100 to 1000 nM | 100 to 1000 nM | 1000 to 10000 nM | 100 to 1000 nM |
| O=C(O)c1ccnc(-c2cn(Cc3ccccn3)cn2)c1 [Example 47, 2-[1-(pyridin-2-ylmethyl)-1H-imidazol-4-yl]pyridine-4-carboxylic acid] | ≤ 100 nM | ≤ 100 nM | 100 to 1000 nM | ≤ 100 nM |
| CN1CCC(n2cnc(-c3cc(C(=O)O)ccn3)c2)CC1 [Example 49, 2-[1-(1-methylpiperidin-4-yl)-1H-imidazol-4-yl]pyridine-4-carboxylic acid] | ≤ 100 nM | ≤ 100 nM | ≤ 100 nM | 100 to 1000 nM |
| O=C(O)c1ccnc(-c2cn(CC3CCCO3)cn2)c1 (stereo not drawn) [Example 51, 2-[1-(tetrahydrofuran-2-ylmethyl)-1H-imidazol-4-yl]pyridine-4-carboxylic acid] | ≤ 100 nM | ≤ 100 nM | 100 to 1000 nM | ≤ 100 nM |
| O=C(O)c1ccnc(-c2cn(C3CCNC3)cn2)c1 (stereo not drawn) [Example 52, 2-[1-(pyrrolidin-3-yl)-1H-imidazol-4-yl]pyridine-4-carboxylic acid] | ≤ 100 nM | ≤ 100 nM | ≤ 100 nM | 100 to 1000 nM |
| O=C(O)c1ccnc(-c2cn(CC3CCCN3)cn2)c1 (stereo not drawn) [Example 53, 2-[1-(pyrrolidin-2-ylmethyl)-1H-imidazol-4-yl]pyridine-4-carboxylic acid] | ≤ 100 nM | ≤ 100 nM | ≤ 100 nM | 100 to 1000 nM |
| CN1CCOC(Cn2cnc(-c3cc(C(=O)O)ccn3)c2)C1 (stereo not drawn) [Example 54, 2-{1-[(4-methylmorpholin-2-yl)methyl]-1H-imidazol-4-yl}pyridine-4-carboxylic acid] | ≤ 100 nM | ≤ 100 nM | ≤ 100 nM | ≤ 100 nM |
| CN1CCCC(Cn2cnc(-c3cc(C(=O)O)ccn3)c2)C1 (stereo not drawn) [Example 55, 2-{1-[(1-methylpiperidin-3-yl)methyl]-1H-imidazol-4-yl}pyridine-4-carboxylic acid] | ≤ 100 nM | ≤ 100 nM | ≤ 100 nM | ≤ 100 nM |
| CN(CCn1cnc(-c2cc(C(=O)O)ccn2)c1)Cc1ccccc1 [Example 57, 2-(1-{2-[benzyl(methyl)amino]ethyl}-1H-imidazol-4-yl)pyridine-4-carboxylic acid] | ≤ 100 nM | ≤ 100 nM | ≤ 100 nM | ≤ 100 nM |
| O=C(O)c1ccnc(-c2cn(CCNCC3CC(F)(F)C3)cn2)c1 [Example 73, 2-[1-[2-[(3,3-difluorocyclobutyl)methylamino]ethyl]imidazol-4-yl]pyridine-4-carboxylic acid] | ≤ 100 nM | ≤ 100 nM | ≤ 100 nM | ≤ 100 nM |
| O=C(O)c1ccnc(-c2cn(CCNCc3ccc(F)cc3)cn2)c1 [Example 74, 2-[1-[2-[(4-fluorophenyl)methylamino]ethyl]imidazol-4-yl]pyridine-4-carboxylic acid] | ≤ 100 nM | ≤ 100 nM | ≤ 100 nM | ≤ 100 nM |
| O=C(O)c1ccnc(-c2cn(CCN3Cc4ccccc4C3)cn2)c1 [Example 76, 2-[1-[2-(1,3-dihydroisoindol-2-yl)ethyl]imidazol-4-yl]pyridine-4-carboxylic acid] | ≤ 100 nM | ≤ 100 nM | ≤ 100 nM | ≤ 100 nM |
| COc1ccccc1CNCCn1cnc(-c2cc(C(=O)O)ccn2)c1 [Example 77, 2-[1-[2-[(2-methoxyphenyl)methylamino]ethyl]imidazol-4-yl]pyridine-4-carboxylic acid] | ≤ 100 nM | ≤ 100 nM | ≤ 100 nM | ≤ 100 nM |
| O=C(O)c1ccnc(-c2cn(CCNCc3ccccc3Cl)cn2)c1 [Example 78, 2-[1-[2-[(2-chlorophenyl)methylamino]ethyl]imidazol-4-yl]pyridine-4-carboxylic acid] | ≤ 100 nM | ≤ 100 nM | ≤ 100 nM | ≤ 100 nM |
| O=C(O)c1ccnc(-c2cn(CCN3Cc4ccc(F)cc4C3)cn2)c1 [Example 79, 2-[1-[2-(5-fluoro-1,3-dihydroisoindol-2-yl)ethyl]imidazol-4-yl]pyridine-4-carboxylic acid] | ≤ 100 nM | ≤ 100 nM | ≤ 100 nM | ≤ 100 nM |
| CCc1ccccc1CNCCn1cnc(-c2cc(C(=O)O)ccn2)c1 [Example 80, 2-[1-[2-[(2-ethylphenyl)methylamino]ethyl]imidazol-4-yl]pyridine-4-carboxylic acid] | ≤ 100 nM | ≤ 100 nM | ≤ 100 nM | ≤ 100 nM |
| O=C(O)c1ccnc(-c2cn(CCN3Cc4cccc(Cl)c4C3)cn2)c1 [Example 81, 2-[1-[2-(4-chloro-1,3-dihydroisoindol-2-yl)ethyl]imidazol-4-yl]pyridine-4-carboxylic acid] | ≤ 100 nM | ≤ 100 nM | ≤ 100 nM | ≤ 100 nM |
| O=C(O)c1ccnc(-c2cn(CCN3Cc4ccc(Cl)cc4C3)cn2)c1 [Example 82, 2-[1-[2-(5-chloro-1,3-dihydroisoindol-2-yl)ethyl]imidazol-4-yl]pyridine-4-carboxylic acid] | ≤ 100 nM | ≤ 100 nM | ≤ 100 nM | ≤ 100 nM |
| N#Cc1cccc2c1CN(CCn1cnc(-c3cc(C(=O)O)ccn3)c1)C2 [Example 83, 2-[1-[2-(4-cyano-1,3-dihydroisoindol-2-yl)ethyl]imidazol-4-yl]pyridine-4-carboxylic acid] | ≤ 100 nM | ≤ 100 nM | ≤ 100 nM | ≤ 100 nM |
